From patent US5571808A, “Method for treating smoking-related bone loss” (Eli Lilly and Company, priority 1995, dated 1996)

What was measured:
[1] = system: ovariectomized (ovex) rats; assay: Femur bone density in ovariectomized rats (model of post-menopausal osteoporosis); type: in vivo, Sprague Dawley rats; details: for inhibition in vivo at 1 mg/kg: Rattus norvegicus, 840 h, 1 mg/kg oral, relative to estrogen treated and untreated ovex animals, read-out: % Inhibition of Bone Loss; for Prevention of bone loss (in words): oral, femur density
Procedure: A model of post-menopausal osteoporosis was used in which effects of different treatments upon femur density were determined. Seventy-five day old female Sprague Dawley rats (weight range of 225 g to 275 g) were obtained from Charles River Laboratories (Portage, Mich.). They were housed in groups of 3 and had ad libitum access to food (calcium content approximately 1%) and water. Room temperature was maintained at 22.2°±1.7° C. with a minimum relative humidity of 40%. The photoperiod in the room was 12 hours light and 12 hours dark.
The right femurs were excised and scanned at the distal metaphysis 1 mm from the patellar groove with single photon absorptiometry. Results of the densitometer measurements represent a calculation of bone density as a function of the bone mineral content and bone width.
Results are reported as the mean of measurements from thirty rats ± the standard error of the mean.
Accordingly, each point reflects the responses of thirty rats and depicts a typical dose response curve for raloxifene in this model. Results are reported as the mean ± the standard error of the mean.
Other compounds of formula I were administered orally in the rat assay described in Example 1.

[2] = system: bone loss in postmenopausal women; details: cited from earlier work

Row | Compound | inhibition in vivo at 1 mg/kg [1] | Prevention of bone loss (in words) [1] | further results
1 | O=C(Oc1ccc(-c2sc3cc(OC(=O)c4ccccc4)ccc3c2C(=O)c2ccc(OCCN3CCCCC3)cc2)cc1)c1ccccc1 [Compound 12] | 60% |  | 
2 | O=C(c1ccc(OCCN2CCCC2)cc1)c1c(-c2ccc(O)cc2)sc2cc(O)ccc12 [Compound 16] | 25% |  | 
3 | COc1ccc(-c2sc3cc(OC)ccc3c2C(=O)c2ccc(OCCN3CCCCC3)cc2)cc1 [Compound 18] | 26% |  | 
4 | C#C[C@]1(O)CC[C@H]2[C@@H]3CCc4cc(O)ccc4[C@H]3CC[C@@]21C [EE2, ethynyl estradiol] |  | prevented this loss of bone in a dose dependent manner | 
5 | O=C(c1ccc(OCCN2CCCCC2)cc1)c1c(-c2ccc(O)cc2)sc2cc(O)ccc12 [raloxifene, 6-hydroxy-2-(4-hydroxyphenyl)-3-[4-(2-piperidinoethoxy)benzoyl]benzo[b]thiophene] |  | prevented bone loss in a dose dependent manner | 
6 | estrogen |  |  | Disorders implicated in long-term estrogen therapy (in words) ([2]; long-term therapy, postmenopausal women): increased risk of uterine and breast cancer; Protective effects of estrogen therapy on bone (in words) ([2]; women smokers (Kiel et al.)): eliminated for women smokers
